According to patent US11098083B2, “Peptide that regulates fat metabolism and method for regulating fat metabolism” (SHENZHEN INSTITUTES OF ADVANCED TECHNOLOGY, priority 2017, dated 2021):
Ends that are not written are not given here.

Tests used:
human GPRC6A (hGPRC6A) = target: T1, human GPRC6A (hGPRC6A) (Homo sapiens, UniProt Q5T6X5); test: fluorescent binding of OCN peptides to cell membranes of Hela cells with hGPRC6A overexpressed; conditions: Hela cells with hGPRC6A overexpressed, fluorescent detection, FIG. 6B
T1 construct: expressed in transfected cells; host or cells: Hela cells (transfected with Lipofectamine 2000)
T1 sequence (Q5T6X5 19-926): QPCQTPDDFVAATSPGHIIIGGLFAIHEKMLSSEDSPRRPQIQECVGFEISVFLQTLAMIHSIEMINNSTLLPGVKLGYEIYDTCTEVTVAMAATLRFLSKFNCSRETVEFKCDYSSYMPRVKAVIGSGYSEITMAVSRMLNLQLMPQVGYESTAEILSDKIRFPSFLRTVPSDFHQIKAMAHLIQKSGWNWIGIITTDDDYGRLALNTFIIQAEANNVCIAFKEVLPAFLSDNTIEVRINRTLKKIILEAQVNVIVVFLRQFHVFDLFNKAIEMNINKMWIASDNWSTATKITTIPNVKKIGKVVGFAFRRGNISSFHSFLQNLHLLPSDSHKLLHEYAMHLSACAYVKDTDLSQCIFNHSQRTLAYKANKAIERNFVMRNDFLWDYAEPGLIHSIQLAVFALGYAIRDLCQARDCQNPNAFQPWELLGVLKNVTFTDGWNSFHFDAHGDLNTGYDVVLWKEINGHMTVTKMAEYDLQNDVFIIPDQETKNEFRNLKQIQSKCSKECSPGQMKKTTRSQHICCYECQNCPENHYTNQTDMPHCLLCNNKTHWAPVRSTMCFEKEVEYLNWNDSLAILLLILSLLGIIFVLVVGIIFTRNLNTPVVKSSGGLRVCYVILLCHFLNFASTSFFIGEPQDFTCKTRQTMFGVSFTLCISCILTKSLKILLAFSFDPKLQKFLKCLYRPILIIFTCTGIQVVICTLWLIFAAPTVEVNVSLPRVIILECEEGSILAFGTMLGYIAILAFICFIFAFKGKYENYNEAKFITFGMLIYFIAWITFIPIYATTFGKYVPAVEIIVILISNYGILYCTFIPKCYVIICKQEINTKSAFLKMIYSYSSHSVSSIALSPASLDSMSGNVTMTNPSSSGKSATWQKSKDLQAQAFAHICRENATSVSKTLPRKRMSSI
Experimental: S131: overexpression of hGPRC6A in Hela cells may be established.
1) Cell plating: A Hela cell suspension may be plated at a density of 1.6×10^5 cells/mL into a 6-well tray with 2 mL of DMEM per well, incubating at 37° C. and 5% CO2 for 24 hours.
2) A vector carrying hGPRC6A (pReceiver-M61) may be transfected into the Hela cells for overexpression, using Lipofectamine 2000 (Invitrogen) as per manufacturer's instructions, and media containing the vector may be replaced by normal media 4 hours later.
3) After the transfection, the cells may be cultured in the normal media for another 48 hours, and the normal media may be discarded. The cells attached on a bottom of each well may be washed twice with sterile PBS, and 300 μl of TRIzol solution may be added into each well. Cellular RNAs may be extracted as per RNAiso Plus (TaKaRa) instructions, and after a DNase treatment, may be reversely transcribed into cDNAs using DNAEngine and a SuperScript™ (Invitrogen, Canada) kit. The cDNAs may be used as a template, and real-time monitoring and analysis may be performed to fluorescent PCR products at various time points using a SYBR Green (Light Cycler Roche, Germany) method to detect expression levels of the hGPRC6A. […] The selected cell strain may then be detected for its gene expression by qPCR. […]

wild-type C57BL/6 mice = test: intestinal fat (olive oil) absorption in normal mice, i.p. injection of peptide; format: in vivo; conditions: FIG. 5
Experimental: S140: effect of acute gavage of ISAP1 on intestinal fat absorption in normal mice may be studied.
Six-week-old male wild-type C57BL/6 mice may be divided into four groups, three in each group, three out of the four groups of mice may be intestinally perfused with 200 μl sterilized olive oil solution (Sigma), and the other one group of mice may be intestinally perfused with normal saline solution to be a negative control group. After 30 minutes, two groups of the mice treated with sterilized olive oil solution may be i.p. injected with OCN (6 pmol/g) and ISAP1 (6 pmol/g) respectively, and the other one group of the mice treated with sterilized olive oil solution may be i.p. injected with normal saline solution to be a saline control group. Further the mice of the negative control group solution may also be i.p. injected with normal saline solution to be the negative group. The mice of all four groups may be sacrificed 30 minutes later. Small intestine samples may be collected. The small intestine sample may be taken from a duodenum to a caecum, divided into 3 segments of equal length. After washing with pre-cooled normal saline solution, a segment close to the duodenum may be frozen and sliced, stained with oil red O and observed for fat absorption.

HFD mice = test: gavage of peptides in HFD mice for 7 weeks: body weight; format: in vivo, C57BL/6 mice; conditions: gavage 2 pmol/g of body weight for 7 weeks, compared with HFD control group, FIG. 7A
Excerpt: Six-week-old male wild-type C57BL/6 mice may be divided into 6 groups, 6 mice in each group. Group #1 may be provided with ND, and groups #2 to #6 may be provided with HFD. Group #2 may be treated as a HFD control group. Groups #3 to #6 may be experimental groups, and mice ingroups #3 to #6 may be gavaged with OCN, ISAP1, ISAP2, and ISAP3 respectively at 2 pmol/g of body weight for 7 weeks. Body weight of each mouse may be monitored and measured once a week.
Six-week-old male wild-type C57BL/6 mice may be divided into 6 groups, 6 in each group. Group #1 may be provided with ND to be a ND control group, and groups #2 to #6 may be provided with HFD. Group #2 may be treated as a HFD control group. Groups #3 to #6 may be treated as experimental groups and may be gavaged with OCN, ISAP1, ISAP2, and ISAP3 respectively at 2 pmol/g of body weight daily for 7 weeks. Body weight may be monitored and measured once a week.
Six-week-old male wild-type C57BL/6 mice may be divided into 6 groups, 6 in each group. Group #1 may be provided with ND to be a ND control group, groups #2 to #6 may be provided with HFD. Group #2 may be treated as a HFD control group. Groups #3 to #6 may be treated as experimental groups, and may be gavaged with OCN, ISAP1, ISAP2, and ISAP3 respectively at 2 pmol/g of body weight daily for 7 weeks. A body weight of each mouse may be monitored and measured once a week.

affinity of binding to the hGPRC6A compared with OCN (human GPRC6A (hGPRC6A)): consistent with that of the OCN
Sequence: YLGASVPSPDPLEPT [ISAP1]
mouse intestinal absorption of the olive oil (oil red O-positive area / total area of intestinal villi) (wild-type C57BL/6 mice; 6 pmol/g i.p. 30 min after 200 μl olive oil, compared with saline control group): effectively reduce
reduction in olive oil absorption compared with OCN treatment (wild-type C57BL/6 mice; 6 pmol/g i.p., OCN 6 pmol/g): even more effective than the OCN treatment
body weight (HFD mice): significant weight loss
